Test results published in patent US6352703B1, “Compositions and methods for detecting and killing termites” (Board of Supervisors of Louisiana State University and …, priority 1997, dated 2002).

Legend:
[1] = test system: Mucor spp. fungus; experiment: Antifungal filter paper disk test, trial 1 (Sabouraud dextrose agar); format: cell-based
Experimental: Mucor was isolated from a Formosan termite nest in our laboratory, a nest originally collected from a cottonwood tree in New Orleans, La. The fungus comprised a white mat that covered large areas of the nest that had been exposed to air and water. Fungus was scraped from the nest and suspended in distilled, de-ionized water with a Pasteur pipette. This suspension was streaked on Sabouraud dextrose agar (“SDA”) (Difco Laboratories, Detroit, Mich.) in 100×15 mm plates containing 20 mL SDA. Pure cultures were obtained from individual colonies on these plates as needed. Cultures were maintained on SDA plates in a 27° C. incubator without light until used.
Filter paper disks (Whatman #1, 1.5 cm) were treated with naphthalene, butylated hydroxytoluene (BHT), dioctyl phthalate, or adipic dioctyl ester, at rates of 2 μg, 20 μg, or 200 μg, dissolved in 100 μL hexane. Controls were treated with hexane alone. For each treatment, just prior to testing for antifungal properties, 1 mL of the hexane solution and ten filter paper disks were placed in a vial, and N2 was used to evaporate the hexane.
A suspension was prepared by scraping Mucor conidia (spores) from the culture plates, and mixing into distilled, deionized water with a Pasteur pipette. A thin layer of this suspension was spread over the surface of each of 130 SDA plates by placing each plate onto an inoculation turntable (Fisher Scientific, Hampton, N.H.), pipetting 0.2 mL of the suspension into the center of the plate, spinning the turntable, and spreading the suspension onto the agar with a bent glass rod. The plates were allowed to dry for two hours. A treated filter paper disk was then placed in the center of each plate (10 plates/treatment), and the plates were incubated at 27° C. The extent to which each filter paper disk was covered by fungus was determined by visual inspection (by the method described in greater detail below) after four, five, and six days.
(§1) Fungal growth on each filter paper disk was recorded by making tracings of the disks, inking in areas with visible fungal growth. The fraction of each disk covered by fungus was measured by making photocopy enlargements of these drawings, cutting out the enlarged disks, weighing the entire circle, cutting out the inked areas of the circle (corresponding to fungal growth), and weighing the latter. The fraction of each circle covered with fungus was then calculated as the ratio of these weights. (The weight of the photocopy toner was negligible.)
(§2) Coverage of filter paper disks was analyzed by the ANOVA procedure (SAS Institute, Version 6.11, Cary, N.C.). Tukey's Studentized Range (HSD) Test was used for comparison of mean separations (α=0.05).

[2] = test system: Reticulitermes spp.; experiment: Trail-following bioassay; format: in vivo
Experimental: (§3) C. formosanus workers were used in the initial bioassay for trail-following behavior. The trail-following bioassay was conducted on two overlapped pencil circles of radius 3 cm. The circumference of each circle passed through the center of the other circle. Each sample was streaked along one of the circles with a 4 μl-micropipette on nonabsorptive paper. A solvent (control) was streaked along the overlapping circle. After the solvent evaporated, one worker was placed in the center of overlap between the two circles. The arena was covered with a red plastic container to reduce visible light and extraneous air flow. To score the worker's activity, one point was given for each continuous 3 cm traveled by a termite over a one minute period. Three replications were performed for each fraction. A new termite was used and new circles were drawn for each trial.
(§4) Trail-following bioassays with standard 2-phenoxyethanol followed procedures that were essentially identical to those for the HPLC fraction screening bioassay described above, except that each trial was replicated 10 times; and that workers and soldiers of both C. formosanus and Reticulitermes spp. were tested. Four concentrations of 2-phenoxyethanol, 0.32, 0.032, 0.0032, 0.00032 μg/cm were used in the bioassays.

[3] = test system: C. formosanus; experiment: Trail-following bioassay; format: in vivo, Coptotermes formosanus Shiraki
Experimental: as §3, §4

[4] = test system: Mucor spp. fungus; experiment: Antifungal filter paper disk test, trial 2 (cornmeal agar, sealed plates); format: cell-based
Experimental: A second trial was conducted with filter papers treated with naphthalene, BHT, or 2,6-di-t-butyl-4-methyl-phenol (“DBP”). A fungal suspension was prepared as in the first trial. Spore concentrations were determined with a counting chamber (Petroff-Hauser, Hauser Scientific Partnership, Horsham, Pa.). Concentrations were adjusted to approximately 10^7 spores/mL. In the first trial fungus grew on SDA quickly, forming a thick mat that soon filled the entire petri dish. Therefore, in the second trial cornmeal agar (CMA, Difco Laboratories, Detroit, Mich.) was used to slow the growth of the fungus during the six-day observation period. A thin layer of the spore suspension was spread over the surface of each of 24 cornmeal agar plates using a turntable and bent glass rod, as previously described.
(§5) Filter paper disks were treated with naphthalene, BHT, or DBP at rates of 2 μg, 20 μg, or 200 μg, prepared as in the first trial. On each plate were placed four filter paper disks spaced equidistant from one another (one disk containing each of the three application rates of one of the test compounds, and one disk containing only the hexane control). Each plate was then covered and sealed with parafilm to reduce the release of volatile compounds. The concentration of naphthalene in the headspace was 0.04 μg/cm^3; except in trial 3 below, in which the concentration was 34.6 μg/cm^3, about 700 times the concentration we have observed in termite nest materials. The growth of fungus on and around each filter paper disk was recorded three, four, and five days after treatment. The experiment was then repeated, increasing the rates of naphthalene, BHT, and DBP to 200 μg, 600 μg, and 1000 μg (trial 3).
as §1, §2

[5] = test system: Mucor spp. fungus; experiment: Antifungal filter paper disk test, trial 3 (cornmeal agar, sealed plates, increased rates); format: cell-based
Experimental: A second trial was conducted with filter papers treated with naphthalene, BHT, or 2,6-di-t-butyl-4-methyl-phenol (“DBP”). A fungal suspension was prepared as in the first trial. Spore concentrations were determined with a counting chamber (Petroff-Hauser, Hauser Scientific Partnership, Horsham, Pa.). Concentrations were adjusted to approximately 10^7 spores/mL. In the first trial fungus grew on SDA quickly, forming a thick mat that soon filled the entire petri dish. […] A thin layer of the spore suspension was spread over the surface of each of 24 cornmeal agar plates using a turntable and bent glass rod, as previously described.
as §5, with “The growth of fungus on and around each filter paper disk was recorded three, four, and five days after treatment.” left out
as §1, §2

[6] = trial 2, 0 μg disk (hexane only) on the same sealed plate as the compound's treated disks
[7] = trial 3, 0 μg disk (hexane only) on the same sealed plate as the compound's treated disks

## CCCCCCCCOC(=O)CCCCC(=O)OCCCCCCCC [Adipic dioctyl ester, adipic dioctyl ester]
[1]; trial 1, rate 2 μg per disk
  Fraction Covered, Day 4 (mean percentage of filter paper disk surface covered by fungus): 44%
  Fraction Covered, Day 5 (mean percentage of filter paper disk surface covered by fungus): 83%
  Fraction covered, Day 6 (mean percentage of filter paper disk surface covered by fungus): 94%
[1]; trial 1, rate 20 μg per disk
  Fraction Covered, Day 4 (mean percentage of filter paper disk surface covered by fungus): 20%
  Fraction Covered, Day 5 (mean percentage of filter paper disk surface covered by fungus): 80%
  Fraction covered, Day 6 (mean percentage of filter paper disk surface covered by fungus): 62%
[1]; trial 1, rate 200 μg per disk
  Fraction Covered, Day 4 (mean percentage of filter paper disk surface covered by fungus): 20%
  Fraction Covered, Day 5 (mean percentage of filter paper disk surface covered by fungus): 75%
  Fraction covered, Day 6 (mean percentage of filter paper disk surface covered by fungus): 91%

## OCCOc1ccccc1 [2-phenoxyethanol]
[2]; 0.00032 μg/cm
  Trail-following behavior: Limited trail-following activity
[2]; Reticulitermes spp. workers and soldiers, 0.32, 0.032 and 0.0032 μg/cm
  Trail-following behavior: elicited trail-following behaviors
[3]; 0.00032 μg/cm
  Trail-following behavior: Limited trail-following activity
[3]; C. formosanus workers and soldiers, 0.32, 0.032 and 0.0032 μg/cm
  Trail-following behavior: elicited trail-following behaviors

## Cc1cc(C(C)(C)C)c(O)c(C(C)(C)C)c1 [DBP, 2,6-di-t-butyl-4-methyl-phenol]
[4]; [6]
  Fraction Covered, Day 3 (mean percentage of filter paper disk surface covered by fungus): 96%
  Fraction Covered, Day 4 (mean percentage of filter paper disk surface covered by fungus): 100%
  Fraction Covered, Day 5 (mean percentage of filter paper disk surface covered by fungus): 100%
[4]; trial 2, rate 2 μg per disk
  Fraction Covered, Day 3 (mean percentage of filter paper disk surface covered by fungus): 98%
  Fraction Covered, Day 4 (mean percentage of filter paper disk surface covered by fungus): 99%
  Fraction Covered, Day 5 (mean percentage of filter paper disk surface covered by fungus): 99%
[4]; trial 2, rate 20 μg per disk
  Fraction Covered, Day 3 (mean percentage of filter paper disk surface covered by fungus): 92%
  Fraction Covered, Day 4 (mean percentage of filter paper disk surface covered by fungus): 95%
  Fraction Covered, Day 5 (mean percentage of filter paper disk surface covered by fungus): 98%
[4]; trial 2, rate 200 μg per disk
  Fraction Covered, Day 3 (mean percentage of filter paper disk surface covered by fungus): 81%
  Fraction Covered, Day 4 (mean percentage of filter paper disk surface covered by fungus): 91%
  Fraction Covered, Day 5 (mean percentage of filter paper disk surface covered by fungus): 99%
[5]; [7]
  Fraction Covered, Day 3 (mean percentage of filter paper disk surface covered by fungus): 40%
  Fraction Covered, Day 4 (mean percentage of filter paper disk surface covered by fungus): 100%
  Fraction Covered, Day 5 (mean percentage of filter paper disk surface covered by fungus): 100%
[5]; trial 3, fourth day
  Fungal coverage of treated disks: ~100%
[5]; trial 3, rate 200 μg per disk
  Fraction Covered, Day 3 (mean percentage of filter paper disk surface covered by fungus): 0%
  Fraction Covered, Day 4 (mean percentage of filter paper disk surface covered by fungus): 94%
  Fraction Covered, Day 5 (mean percentage of filter paper disk surface covered by fungus): 93%
[5]; trial 3, rate 600 μg per disk
  Fraction Covered, Day 3 (mean percentage of filter paper disk surface covered by fungus): 1%
  Fraction Covered, Day 4 (mean percentage of filter paper disk surface covered by fungus): 100%
  Fraction Covered, Day 5 (mean percentage of filter paper disk surface covered by fungus): 100%
[5]; trial 3, rate 1000 μg per disk
  Fraction Covered, Day 3 (mean percentage of filter paper disk surface covered by fungus): 0%
  Fraction Covered, Day 4 (mean percentage of filter paper disk surface covered by fungus): 91%
  Fraction Covered, Day 5 (mean percentage of filter paper disk surface covered by fungus): 97%

## CCCCCCCCOC(=O)c1ccccc1C(=O)OCCCCCCCC [Dioctyl phthalate, dioctyl phthalate]
[1]; trial 1, rate 2 μg per disk
  Fraction Covered, Day 4 (mean percentage of filter paper disk surface covered by fungus): 67%
  Fraction Covered, Day 5 (mean percentage of filter paper disk surface covered by fungus): 78%
  Fraction covered, Day 6 (mean percentage of filter paper disk surface covered by fungus): 89%
[1]; trial 1, rate 20 μg per disk
  Fraction Covered, Day 4 (mean percentage of filter paper disk surface covered by fungus): 32%
  Fraction Covered, Day 5 (mean percentage of filter paper disk surface covered by fungus): 49%
  Fraction covered, Day 6 (mean percentage of filter paper disk surface covered by fungus): 88%
[1]; trial 1, rate 200 μg per disk
  Fraction Covered, Day 4 (mean percentage of filter paper disk surface covered by fungus): 57%
  Fraction Covered, Day 5 (mean percentage of filter paper disk surface covered by fungus): 69%
  Fraction covered, Day 6 (mean percentage of filter paper disk surface covered by fungus): 82%
